Test [1] concerns the target T1, hOT7T175 (Homo sapiens, UniProt Q969F8, L364H). The test can be described thus: hOT7T175 receptor binding activity: binding inhibition of Cy-5-labeled metastin (40-54) on hOT7T175-expressed CHO cells. Also noted: expressed in transfected cells; host or cells: CHO cells.
Test [2] has as its target T1, hOT7T175. In words: Intracellular Ca ion level-increasing activity using FLIPR in hOT7T175/CHO. The test is classed as cell-based. Also noted: expressed in transfected cells; host or cells: CHO/dhfr- cells, obtained from ATCC. As to conditions: relative, Metastin (1-54) = 1.

Here are results for 19 compounds from patent publication US8361968B2 (Takeda Pharmaceutical Company Limited, priority 2002, dated 2013).

Numbered stars: 1 amine (or outer) side, 2 acyl side, 3 side chain; on linkers, the order of the positions; unused ones are H or OH. Square brackets hold non-standard residues; d marks the D form. Peptide text beside a SMILES is read from it. * marks the point of attachment. Diphenylacetyl = O=C(C(c1ccccc1)c1ccccc1)*; X7 = CNC(=N)NCCCC[C@H](N[*:1])C(=O)[*:2]; Phe(4-F) = N[C@@H](Cc1ccc(F)cc1)C(=O)O; X8 = CNC(=N)NCC[C@H](N[*:1])C(=O)[*:2]; 1Nal = N[C@@H](Cc1cccc2ccccc12)C(=O)O; Arg(Me) = CNC(=N)NCCC[C@H](N)C(=O)O; Hydrocinnamoyl = O=C(CCc1ccccc1)*; Cha = N[C@@H](CC1CCCCC1)C(=O)O; azaGly = NNC(=O)O

T1 sequence (Q969F8 whole entry L364H): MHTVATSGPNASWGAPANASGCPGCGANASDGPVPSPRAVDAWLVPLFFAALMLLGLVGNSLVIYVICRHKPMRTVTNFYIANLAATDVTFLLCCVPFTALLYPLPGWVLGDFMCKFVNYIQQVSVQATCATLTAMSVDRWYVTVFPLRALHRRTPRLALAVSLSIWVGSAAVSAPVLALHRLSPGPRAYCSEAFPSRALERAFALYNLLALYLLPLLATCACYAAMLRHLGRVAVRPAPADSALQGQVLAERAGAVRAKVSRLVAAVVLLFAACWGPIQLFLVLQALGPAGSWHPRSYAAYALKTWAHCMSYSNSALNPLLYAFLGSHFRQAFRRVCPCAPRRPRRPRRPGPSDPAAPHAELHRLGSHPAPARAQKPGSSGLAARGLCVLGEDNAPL

`CC(C)C[C@H](NC(=O)[C@H](CO)NC(=O)[C@H](Cc1ccccc1)NC(=O)[C@H](CO)NC(=O)[C@H](CC(N)=O)NC(=O)[C@H](Cc1c[nH]c2ccccc12)NC(=O)[C@H](CC(N)=O)NC(=O)[C@@H](N)Cc1ccc(O)cc1)C(=O)N[C@@H](CCCNC(=N)N)C(=O)N[C@@H](Cc1ccccc1)C(N)=O` [Compound No. 101] (H-YNWNSFSLRF-NH2): in test [1], the IC50 was determined as 0.1 µM. In test [2], the “Specific Activity (intracellular Ca ion level-increasing activity)” value worked out at 10.
The like results for `CC(C)C[C@H](NC(=O)CNC(=O)[C@H](Cc1ccccc1)NC(=O)[C@H](CO)NC(=O)[C@H](CC(N)=O)NC(=O)[C@H](Cc1c[nH]c2ccccc12)NC(=O)[C@H](CC(N)=O)NC(=O)[C@@H](N)Cc1ccc(O)cc1)C(=O)N[C@@H](CCCNC(=N)N)C(=O)N[C@@H](Cc1ccc(Cl)cc1)C(N)=O` [Compound No. 130] were, in that order, 0.042 µM and 10.
Take `CNC(=N)NCCC[C@H](NC(=O)[C@H](CC(C)C)NC(=O)CNC(=O)[C@H](CC1CCCCC1)NC(=O)[C@H](CO)NC(=O)[C@H](CC(N)=O)NC(=O)[C@H](CC1CCCCC1)NC(=O)[C@H](CC(N)=O)NC(=O)[C@H](N)Cc1ccc(O)cc1)C(=O)N[C@@H](Cc1c[nH]c2ccccc12)C(N)=O` [Compound No. 182, D-Tyr-Asn-Cha-Asn-Ser-Cha-Gly-Leu-Arg(Me)-Trp-NH2] (H-[dY]N[Cha]NS[Cha]GL[Arg(Me)]W-NH2): the IC50 in test [1] was 0.098 µM. For the same compound, the “Specific Activity (intracellular Ca ion level-increasing activity)” value in test [2] amounted to 5.
The like results for `CNC(=N)NCC[C@H](NC(=O)[C@H](CC(C)C)NC(=O)CNC(=O)[C@H](Cc1ccccc1)NC(=O)[C@H](CO)NC(=O)[C@H](CC(N)=O)NC(=O)[C@H](Cc1c[nH]c2ccccc12)NC(=O)[C@H](CC(N)=O)NC(=O)[C@@H](N)Cc1ccc(O)cc1)C(=O)N[C@@H](Cc1ccccc1)C(N)=O` [Compound No. 311] (H-YNWNSFGL[X8]F-NH2) were, in that order, 0.47 µM and 1.
The corresponding values for `CC(C)C[C@H](NC(=O)CNC(=O)[C@H](Cc1ccccc1)NC(=O)[C@H](CO)NC(=O)[C@H](CC(N)=O)NC(=O)[C@H](Cc1c[nH]c2ccccc12)NC(=O)[C@H](CC(N)=O)NC(=O)[C@@H](N)Cc1ccc(O)cc1)C(=O)N[C@@H](CCCNC(=N)N)C(=O)N[C@@H](CC1CCCCC1)C(N)=O` [Compound No. 112] (H-YNWNSFGLR[Cha]-NH2) are 0.37 µM and 2.
The corresponding values for `CNC(=N)NCCC[C@H](NC(=O)[C@H](CC(C)C)NC(=O)NNC(=O)[C@H](Cc1ccccc1)NC(=O)[C@H](CO)NC(=O)[C@H](CC(N)=O)NC(=O)[C@H](Cc1cccc2ccccc12)NC(=O)[C@H](CC(N)=O)NC(=O)[C@H](N)Cc1ccc(O)cc1)C(=O)N[C@@H](Cc1ccccc1)C(N)=O` [Compound No. 245, D-Tyr-Asn-Nal(1)-Asn-Ser-Phe-AzaGly-Leu-Arg(Me)-Phe-NH2] (H-[dY]N[1Nal]NSF[azaGly]L[Arg(Me)]F-NH2) are 0.098 µM and 1.
For `CNC(=N)NCCC[C@H](NC(=O)[C@H](CC(C)C)NC(=O)CNC(=O)[C@H](Cc1ccccc1)NC(=O)[C@H](CO)NC(=O)[C@H](CC(N)=O)NC(=O)[C@@H](Cc1c[nH]c2ccccc12)NC(=O)[C@H](CC(N)=O)NC(=O)[C@H](N)Cc1ccc(O)cc1)C(=O)N[C@@H](Cc1ccccc1)C(N)=O` [Compound No. 142, D-Tyr-Asn-D-Trp-Asn-Ser-Phe-Gly-Leu-Arg(Me)-Phe-NH2], the IC50 in test [1] is 0.026 µM. In addition, the “Specific Activity (intracellular Ca ion level-increasing activity)” value in test [2] is recorded as 2.
The like results for `CC(C)C[C@H](NC(=O)CNC(=O)[C@H](Cc1ccccc1)NC(=O)[C@H](CO)NC(=O)[C@H](CC(N)=O)NC(=O)[C@H](Cc1c[nH]c2ccccc12)NC(=O)[C@H](CC(N)=O)NC(=O)[C@@H](N)CC(=O)O)C(=O)N[C@@H](CCCNC(=N)N)C(=O)N[C@@H](Cc1ccccc1)C(N)=O` [Compound No. 75] (H-DNWNSFGLRF-NH2) were, in that order, 0.88 µM and 1.
The like results for `CNC(=N)NCCC[C@H](NC(=O)[C@H](CC(C)C)NC(=O)CNC(=O)[C@H](Cc1ccccc1)NC(=O)[C@H](CO)NC(=O)[C@H](CC(N)=O)NC(=O)[C@@H](NC(=O)[C@H](CC(N)=O)NC(=O)[C@H](N)Cc1ccc(O)cc1)[C@@H](C)O)C(=O)N[C@@H](Cc1ccccc1)C(N)=O` [Compound No. 205] (H-[dY]NTNSFGL[Arg(Me)]F-NH2) were, in that order, 0.26 µM and 10.
The corresponding values for `CNC(=N)NCCC[C@H](NC(=O)[C@H](CC(C)C)NC(=O)NNC(=O)[C@H](Cc1ccccc1)NC(=O)[C@H](CO)NC(=O)[C@H](CC(N)=O)NC(=O)C(c1ccccc1)c1ccccc1)C(=O)N[C@@H](Cc1ccccc1)C(N)=O` [Compound No. 268, Diphenylacetyl-Asn-Ser-Phe-AzaGly-Leu-Arg(Me)-Phe-NH2] (Diphenylacetyl-NSF[azaGly]L[Arg(Me)]F-NH2) are 0.55 µM and 1.
Consider `CNC(=N)NCCC[C@H](NC(=O)[C@H](CC(C)C)NC(=O)NNC(=O)[C@H](Cc1ccccc1)NC(=O)[C@H](CO)NC(=O)[C@H](CC(N)=O)NC(=O)CCc1ccccc1)C(=O)N[C@@H](Cc1ccccc1)C(N)=O` [Compound No. 269, 3-Phenylpropionyl-Asn-Ser-Phe-AzaGly-Leu-Arg(Me)-Phe-NH2] (Hydrocinnamoyl-NSF[azaGly]L[Arg(Me)]F-NH2), for which the IC50 in test [1] amounted to 0.47 µM. Also, the “Specific Activity (intracellular Ca ion level-increasing activity)” value in test [2] was 3.
On to `CNC(=N)NCCCC[C@H](NC(=O)[C@H](CC(C)C)NC(=O)CNC(=O)[C@H](Cc1ccccc1)NC(=O)[C@H](CO)NC(=O)[C@H](CC(N)=O)NC(=O)[C@H](Cc1c[nH]c2ccccc12)NC(=O)[C@H](CC(N)=O)NC(=O)[C@@H](N)Cc1ccc(O)cc1)C(=O)N[C@@H](Cc1ccccc1)C(N)=O` [Compound No. 312] (H-YNWNSFGL[X7]F-NH2), for which the IC50 in test [1] came out at 0.1 µM. In addition, in test [2], the “Specific Activity (intracellular Ca ion level-increasing activity)” value came to 3.
For the compound `CNC(=N)NCCC[C@H](NC(=O)[C@H](CC(C)C)NC(=O)NNC(=O)[C@H](Cc1ccccc1)NC(=O)[C@H](CO)NC(=O)[C@H](CC(N)=O)NC(=O)[C@@H](NC(=O)[C@@H](CC(N)=O)NC(=O)[C@H](N)Cc1ccc(O)cc1)[C@@H](C)O)C(=O)N[C@@H](Cc1ccc(F)cc1)C(N)=O` [Compound No. 316, D-Tyr-D-Asn-Thr-Asn-Ser-Phe-AzaGly-Leu-Arg(Me)-Phe(4F)-NH2] (H-[dY][dN]TNSF[azaGly]L[Arg(Me)][Phe(4-F)]-NH2), in test [1], the IC50 was determined as 0.026 µM. Besides, the “Specific Activity (intracellular Ca ion level-increasing activity)” value in test [2] was 1.
The like results for `CC(C)C[C@H](NC(=O)CNC(=O)[C@H](Cc1ccccc1)NC(=O)[C@H](CO)NC(=O)[C@H](CC(N)=O)NC(=O)[C@H](Cc1cn(C=O)c2ccccc12)NC(=O)[C@H](CC(N)=O)NC(=O)[C@@H](N)Cc1ccc(O)cc1)C(=O)N[C@@H](CCCNC(=N)N)C(=O)N[C@@H](Cc1ccc(C#N)cc1)C(N)=O` [Compound No. 78, Tyr-Asn-Trp(For)-Asn-Ser-Phe-Gly-Leu-Arg-Phe(4CN)-NH2] were, in that order, 0.025 µM and 10.
The like results for `CNC(=N)NCCC[C@H](NC(=O)[C@H](CC(C)C)NC(=O)NNC(=O)[C@H](Cc1ccccc1)NC(=O)[C@H](CO)NC(=O)[C@H](CC(N)=O)NC(=O)[C@@H](N)Cc1c[nH]c2ccccc12)C(=O)N[C@@H](Cc1ccccc1)C(N)=O` [Compound No. 271, Trp-Asn-Ser-Phe-AzaGly-Leu-Arg(Me)-Phe-NH2] (H-WNSF[azaGly]L[Arg(Me)]F-NH2; N-terminus assumed) were, in that order, 0.12 µM and 1.
The like results for `CC(C)C[C@H](NC(=O)CNC(=O)[C@H](Cc1ccccc1)NC(=O)[C@H](CO)NC(=O)[C@H](CC(N)=O)NC(=O)[C@H](Cc1c[nH]c2ccccc12)NC(=O)[C@H](CC(N)=O)NC(=O)[C@@H](N)Cc1ccc(O)cc1)C(=O)N[C@@H](CCCNC(=N)N)C(=O)N[C@@H](Cc1ccc(O)cc1)C(N)=O` [Compound No. 109] (H-YNWNSFGLRY-NH2) were, in that order, 0.023 µM and 20.
Regarding `CC(C)C[C@H](NC(=O)CNC(=O)[C@H](Cc1ccccc1)NC(=O)[C@H](CO)NC(=O)[C@H](CC(N)=O)NC(=O)[C@H](Cc1c[nH]c2ccccc12)NC(=O)[C@H](CC(N)=O)NC(=O)[C@@H](N)Cc1ccc(O)cc1)C(=O)N[C@@H](CCCNC(=N)N)C(=O)N[C@@H](Cc1cccc2ccccc12)C(N)=O` [Compound No. 133] (H-YNWNSFGLR[1Nal]-NH2), in test [1], the IC50 was 0.33 µM. Moreover, the “Specific Activity (intracellular Ca ion level-increasing activity)” value in test [2] stood at 3.
In turn, `COc1ccc(C[C@H](NC(=O)[C@H](CCCNC(=N)N)NC(=O)[C@H](CC(C)C)NC(=O)CNC(=O)[C@H](Cc2ccccc2)NC(=O)[C@H](CO)NC(=O)[C@H](CC(N)=O)NC(=O)[C@H](Cc2c[nH]c3ccccc23)NC(=O)[C@H](CC(N)=O)NC(=O)[C@@H](N)Cc2ccc(O)cc2)C(N)=O)cc1` [Compound No. 18] (H-YNWNSFGLRY(Me)-NH2) registered an IC50 in test [1] of 0.0077 µM. Moreover, in test [2], the “Specific Activity (intracellular Ca ion level-increasing activity)” value amounted to 1.
The corresponding values for `CNC(=N)NCCC[C@H](NC(=O)[C@H](CC(C)C)NC(=O)NNC(=O)[C@H](Cc1ccccc1)NC(=O)[C@H](CO)NC(=O)[C@H](CC(N)=O)NC(=O)[C@H](Cc1c[nH]c2ccccc12)NC(C)=O)C(=O)N[C@@H](Cc1ccccc1)C(N)=O` [Compound No. 272, Acetyl-Trp-Asn-Ser-Phe-AzaGly-Leu-Arg(Me)-Phe-NH2] (Ac-WNSF[azaGly]L[Arg(Me)]F-NH2) are 0.54 µM and 2.
